Each structure is given as a SMILES string.

In one series the test system is Ges-1 cells. In kind it is cell-based. The text has this: (§1) 2.4.1 Cytotoxicity detection
Another series has as its system AGS cells. The method, then:
as §1
(1) Ges-1 and AGS cell suspensions are prepared, and the concentration is adjusted to 1×10^6.
(2) Inoculation into a 96-well plate: 100 μL is added per well, and 3 replicates is performed for the same sample.
(3) Culture is performed for 12 hours in an incubator at 37° C.
(4) 10 μL of zinc linolenate, 10 μL of linolenic acid, and 10 μL of zinc chloride are added respectively, and the working concentrations are 400 μg/mL, 300 μg/mL, 200 μg/mL, 100 μg/mL, and 0 μg/mL, respectively. A group added with drugs and without cells and a PBS control group are set.
(5) Culture is performed for 12 hours in an incubator at 37° C.
(6) 10 μL of CCK-8 is added, mixed by tapping and incubated for 4 hours.
(7) The absorbance at 450 nm is measured, and the survival rate is calculated according to the formula: cell proliferation rate[(As−Ab)]/[(Ac−Ab)]×100%, wherein As are wells containing the cell culture medium, drugs, and CCK-8; Ac are wells containing the cell culture medium, CCK-8, and no drug; and Ab are wells containing no cells and drugs, but only the culture medium and CCK-8. A survival curve is established based on the survival rate.

Consider `CC/C=C\C/C=C\C/C=C\CCCCCCCC(=O)[O-].CC/C=C\C/C=C\C/C=C\CCCCCCCC(=O)[O-].[Zn+2]` [zinc linolenate], for which the “toxicity compared with linolenic acid” value in the series on Ges-1 cells and in the series with AGS cells was “smaller than that of linolenic acid” throughout.

The values are drawn from US11203563B2, “Preparation of zinc linolenate, and application of zinc linolenate in preparing anti-helicobacter pylori drug” (NANJING MEDICAL UNIVERSITY, priority 2018, dated 2021).
